Patent US20260167972A1, “AMINO ACID DERIVATIVES AS NOVEL DELIVERY AGENTS FOR FUNCTIONAL DELIVERY OF OLIGONUCLEOTIDES” (University of Rochester, priority 2022, published 2026)

Key:
[1] = Dynamic light scattering of N-X-Phe-DAP/siRNA nanoparticles; format: physicochemical; settings: for Diameter (nm), DLS: N-X-Phe-DAP/siRNA nanoparticles, 5 μM derivative, 30 nM siRNA, ± standard deviation
Protocol: Each N-X-Phe-DAP derivative (100 μM) was mixed with siRNA (600 nM) in H2O for 30 minutes, followed by dilution of this mixture into DMEM cell culture media to final concentrations of 5 μM N-X-Phe-DAP derivative and 30 nM siRNA. Dynamic light scattering (DLS) and transmission electron microscopy (TEM) were utilized to analyze the physical characteristics of the resulting N-X-Phe-DAP/siRNA nanoparticles (Table 2, FIG. 4). […] Average diameter (nm), determined by dynamic light scattering (DLS) and TEM imaging, is reported as the average of […] with the error reported as the standard deviation of the mean. Binding affinity (Kd) of each agent to siRNA was determined by a slot blot filtration assay with values reported as the average of three measurements and error reported as the standard deviation of the mean. […] (B) Diameter (nm) determined by TEM (n=9, ***p≤0.001 ****p≤0.0001).
Dynamic Light Scattering: N-X-Phe-DAP derivatives (100 μM) were complexed with siRNA (600 nM) in Ultrapure™ DNase/RNase-Free Distilled Water (Invitrogen 10977015) and allowed to incubate for 30 minutes at room temperature. These solutions were then diluted into water to give final concentrations of 5 μM Phe derivative and 30 nM siRNA. Dynamic light scattering measurements were taken using a DynaPro Plate Reader II. Diameter is reported as an average of 10 measurements using Dynamics software.

FITC-siRNA = experiment: Slot blot filtration binding affinity assay; settings: binding to siRNA (FITC-siRNA); average of three measurements ± standard deviation
Protocol: The binding affinity (Kd) of N-X-Phe-DAP derivatives to siRNA was next characterized to determine how the chemical functionality of the Phe derivatives impacts siRNA interactions. Comparative binding affinity (Kd) of N-X-Phe-DAP derivatives to fluorescently labeled FITC-siRNA was determined using a slot blot filtration assay (Table 2). […] Therefore, the decrease in binding affinity of Fmoc-F5-Phe-DAP for siRNA is likely due to competition between siRNA binding and self-assembly.
Slot Blot Binding Affinity Measurements (see FIGS. 39-48): Nitrocellulose (Bio-Rad, #1620112) and nylon membranes (VWR, #95038-400) were soaked in 100 mM Tris-HCl buffer for 20 minutes. The membranes were then stacked on two sheets of Bio-Rad SF thick filter paper (#1620161) in a Bio-Rad SF 48-well slot blot apparatus. 200 μL of 100 mM Tris-HCl buffer was added to each well to test for even vacuum distribution and for membrane rehydration three times. N-X-Phe-DAP derivatives were prepared in concentrations ranging from 4000 μM to 0 μM and incubated with FITC-siRNA (6.5 μL, 1 μM) for 30 minutes in the dark. 40 μL of each sample, in addition to 200 μL Tris-HCl buffer was run in triplicate and the apparatus was covered with aluminum foil for 20 minutes. The vacuum was opened, allowing for samples in the wells to penetrate the membranes. After closing the vacuum, 200 μL of Tris-HCl buffer was added to rinse each well followed by re-opening of the vacuum three times. Membranes were then dried and imaged on Bio-Rad ChemiDoc MS. Fluorescence intensity density measurements were made using Image J. The fraction bound of siRNA was calculated using the following equation, where Initro is the fluorescence intensity measured from the nitrocellulose membrane and Inylon is the fluorescence intensity measured from the nylon membrane:
This equation is as follows where Y is the fraction bound, X is the N-X-Phe-DAP concentration (μM), Bmax is the maximum binding, Kd is the binding affinity, and h is the Hill slope: […]

[2] = test system: A549 lung adenocarcinoma cells; experiment: Cellular uptake of FITC-siRNA by fluorescence microscopy; format: cell-based, human; settings: A549 cells dosed 4 hours; green fluorescence, FIG. 5
Protocol: The N-X-Phe-DAP derivatives facilitate functional delivery of siRNA. N-X-Phe-DAP derivatives (100 μM) were incubated with a fluorescently labelled siRNA (FITC-siRNA, 600 nM) for 30 minutes in the dark followed by dilution into DMEM. A549 lung carcinoma cells were then dosed with these solutions for 4 hours, after which N-X-Phe-DAP/siRNA cellular uptake was visualized by confocal microscopy to visual FITC-siRNA in fixed cells in which the nuclei had been stained with DAPI nuclear stain (FIG. 5). Translocation of siRNA with the N-X-Phe-DAP derivatives was compared with Lipofectamine by observing the presence of green fluorescence (FITC-siRNA) in the images.
Sample Preparation for Cell-Based Experiments: For delivery analysis and functional knockdown, N-X-Phe-DAP derivatives (10 μL, 1 mM) or Lipofectamine 3000 (6 μL) was mixed with TTF-1 siRNA (Santa Cruz Biotechnology sc-36756, 6 μL, 10 μM) in Ultrapure™ DNase/RNase-Free Distilled Water (Invitrogen 10977015) to give a final volume of 100 μL. These mixtures were incubated for 30 minutes at room temperature, followed by dilution into 1×DMEM (Gibco 11965092, 1.9 mL). For cytotoxicity assays, N-X-Phe-DAP derivatives (10 μL, 1 mM) were diluted into 1×DMEM (Gibco 11965092, 1.9 mL).
N-X-Phe-DAP-siRNA Cellular Delivery Analysis A549 lung adenocarcinoma cells (ATCC #) were seeded at a density of 1.05×10^5 cells/well in a glass bottom 24-well plate (500 μL) and grown to 70-90% confluency. Cells were washed with 1× phosphate buffered saline (PBS, Gibco 14190144), samples were added (500 μL/well), and incubated for 4 h at 37° C., 5% C02. After 4 h, media was removed, cells were washed with 1×PBS, and fixed with 4% paraformaldehyde solution. After 10 min, cells were washed twice with 1×PBS and incubated with DAPI stain (1 μg/mL) in the dark. After 5 min, cells were washed three times with 1×DPBS and stored at −20° C. until imaging. A Nikon T1 epifluorescence microscope was used for fluorescent imaging. Images were collected at 40× magnification using NIS-Elements Viewer (Nikon) software. All images were processed in Adobe Photoshop by selecting “image” then “Adjustments” then “Levels”. In the pop-up window, “Channel” was selected followed by “Green” and Output levels were adjusted with an upper limit of 200. In the sample pop-up window under “Options” the “Enhance Per Channel Contrast” was selected under algorithms.

SMILES	Diameter (nm), DLS [1] [nm]	Kd (FITC-siRNA) [µM]	FITC-siRNA delivery compared with Lipofectamine [2]	diameter of siRNA nanoparticles by DLS and TEM measurements [1] [nm]
NCCCNC(=O)[C@H](Cc1ccccc1)NC(=O)Cc1cccc2ccccc12 [1-Nap-Phe-DAP]	221 ± 26	293	improved siRNA delivery	
NCCCNC(=O)[C@H](Cc1ccccc1)NC(=O)Cc1ccc2ccccc2c1 [2-Nap-Phe-DAP]	416 ± 33	186	on par with Lipofectamine	
NCCCNC(=O)[C@H](Cc1ccccc1)NC(=O)OCc1ccccc1 [Cbz-Phe-DAP]	94 ± 14	97	improved siRNA delivery	~100
NCCCNC(=O)[C@H](Cc1ccccc1)NC(=O)C1CCCCC1 [Cyc-Phe-DAP]	125 ± 74	179 ± 8	on par with Lipofectamine	~100
NCCCNC(=O)[C@H](Cc1ccccc1)NC(=O)CC1c2ccccc2-c2ccccc21 [Fm-Phe-DAP]	139 ± 14	307 ± 34	on par with Lipofectamine	
NCCCNC(=O)[C@H](Cc1cccc(F)c1)NC(=O)OCC1c2ccccc2-c2ccccc21 [Fmoc-3F-Phe-DAP]	228 ± 18	131	on par with Lipofectamine	
NCCCNC(=O)[C@H](Cc1c(F)c(F)c(F)c(F)c1F)NC(=O)OCC1c2ccccc2-c2ccccc21 [Fmoc-F5-Phe-DAP]	202 ± 15	217	improved siRNA delivery	
NCCCNC(=O)[C@H](Cc1ccccc1)NC(=O)OCC1c2ccccc2-c2ccccc21 [Fmoc-Phe-DAP]	156 ± 13	159	improved siRNA delivery	
CCCCCCC(=O)N[C@@H](Cc1ccccc1)C(=O)NCCCN [Hex-Phe-DAP]	50 ± 6	183 ± 9	improved siRNA delivery	
NCCCNC(=O)[C@H](Cc1ccccc1)NC(=O)CCCc1ccc2ccc3cccc4ccc1c2c34 [Pyr-Phe-DAP]	105 ± 8	32	improved siRNA delivery	
